Consider twelve molecules from PubChem BioAssay (NCI).

Assay in all cases: growth of human tumour cells (NCI), 48 h
Assay [1] concerns NCI-H23 lung.
In assay [2] the test system is SF-295 CNS.
The subject of assay [3] is MOLT-4 leukemia.
Assay [4] deals with DU-145 prostate.
The test system of assay [5] is MDA-MB-231 breast.
The test system of assay [6] is HS 578T breast.
For assay [7], the system named is NCI-H522 lung.
The test system of assay [8] is NCI-H460 lung.
The test system of assay [9] is HL-60(TB) leukemia.
The test system of assay [10] is A498 renal.

Where “and” joins values, the source holds several entries; their conditions need not be identical. Identical values can stand only once.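 Cells were grown in 96-well plates and exposed to each compound for 48 hours at five concentrations; endpoints were interpolated linearly between bracketing concentrations, or set to the highest concentration if not reached. The concentration for 50% growth inhibition is given as GI50. TGI: total growth inhibition.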

As for `CN(C)CCCn1c(=O)c2ccccc2c2cnc3[nH]ccc3c21`, the GI50 in assay [1] is 1.76 µM; in assay [2] it was 1.18 µM; in assay [3], 0.838 µM; in assay [4] it was 2.14 µM; in assay [5], 1.99 µM; in assay [6], 2.53 µM. For the same molecule, the GI50 in assay [7] is 1.82 µM; in [8], 0.8 µM; in assay [9], 3.27 µM; in assay [10], 1.03 µM. For the same molecule, the TGI was 6.62 µM in [1]; 6.65 µM in assay [2]; 11 µM in [3]; 8.97 µM in assay [4]; 8.83 µM in assay [5]; 11.2 µM in assay [6]. Further, the TGI in [7] worked out at 5.03 µM; in assay [8], 2.62 µM; in assay [9], 9.08 µM; in assay [10], 2.37 µM.
In the case of `CN(C)CC1CC/C(=C\c2ccc3c(c2)OCO3)C1=O` (stereo not given), the TGI in assay [1] is 24.4 µM; in assay [2], 56.8 µM; in [3], 13.8 µM; in assay [4], 19.7 µM; in assay [5], 4.25 µM; in [6], greater than 100 µM. Also, the TGI in assay [7] is 8.51 µM; in assay [8], 47.9 µM; in [9], 11 µM; in [10], 52.1 µM.
With `CCN(CC)CCCC(C)Nc1cc(-c2cccc(OC(F)(F)F)c2)nc2ccc(N3CCCC3)cc12` (stereo not given), the GI50 in assay [1] was 0.161 µM; in assay [2] it was 0.0404 µM; in assay [3], 0.306 µM; in assay [4], 0.0782 µM; in assay [5] it was 0.195 µM; in assay [6] it was 0.0337 µM. Moreover, the GI50 in assay [7] is 0.0249 µM; in assay [8] it was 0.0377 µM; in assay [9], 0.0528 µM; in [10] it was 0.0301 µM. Moreover, the TGI in assay [1] was greater than 64 µM; in assay [2], 11.9 µM; in assay [3], greater than 100 µM; in [4], 13.6 µM; in [5] it was 14.9 µM; in assay [6], 3.22 µM. The TGI in assay [7] was 0.5 µM; in [8], 3.66 µM; in [9], 2.06 µM; in [10], 3.03 µM.
Turning to `O=C(NCC(F)(F)F)Nc1cccc(-c2cnc3cc(-c4ccc(F)cc4)ccn23)c1`, the GI50 in assay [1] is 1.65 µM; in assay [2], 0.737 µM; in assay [3] it was 0.681 µM; in assay [4] it was 3.91 µM; in assay [5] it was 2.65 µM; in [6] it was 0.733 µM. For the same molecule, the GI50 in assay [7] was 0.225 µM; in assay [8] it was 0.491 µM; in assay [9], 0.58 µM; in assay [10], 0.29 µM. Also, the TGI in [1] was 20.8 µM; in [2], 6.97 µM; in [3] it was greater than 29 µM; in assay [4] it was greater than 100 µM; in assay [5] it was greater than 49.4 µM; in [6] it was greater than 100 µM. Further, the TGI in assay [7] was 0.962 µM; in assay [8], greater than 100 µM; in [9], 24.7 µM; in assay [10] it was 2.47 µM.
`O=C1CSC(c2ccccc2Cl)N1c1nnc(Cn2cnnc2)o1` (stereo not given): the GI50 in assay [1] is 16.4 µM; in assay [2] it was 3.38 µM; in assay [3], 7.27 µM; in assay [4] it was 19.7 µM; in [5], 12.1 µM; in assay [6], 8.62 µM. Further, the GI50 in [7] is 10.4 µM; in assay [8], 7.91 µM; in [9], 2.69 µM; in assay [10] it was 12.3 µM. For the same molecule, the TGI in assay [1] was greater than 100 µM; in assay [2] it was 19.5 µM; in [3], 26.1 µM; in assay [4] it was 44.3 µM; in assay [5] it was 29.9 µM; in [6], 60.9 µM. In addition, the TGI in assay [7] is 38 µM; in [8], 43.8 µM; in assay [9], 8.67 µM; in [10], 52.7 µM.
In the case of `C#Cc1cccc(Nc2nc(Cl)nc3cc(NC(=O)CCl)ccc23)c1`, the GI50 in assay [1] is 0.962 µM; in assay [2], 3.89 µM; in [3], 0.564 µM; in [4], 0.806 µM; in assay [5], 0.758 µM; in assay [6], 1.43 µM. In addition, the GI50 in [7] was 0.465 µM; in assay [8], 1.44 µM; in assay [9] it was 1.42 µM; in assay [10], 3.13 µM. For the same molecule, the TGI was 3.77 µM in assay [1]; 7.33 µM in assay [2]; 1.64 µM in assay [3]; 2.8 µM in assay [4]; 2.73 µM in assay [5]; 9.17 µM in assay [6]. Further, the TGI stood at 0.897 µM in assay [7], 4.24 µM in [8], 7.27 µM in assay [9] and 6.32 µM in assay [10].
Turning to `C1CN(c2nnc(N3CCC3)nn2)C1`, the TGI was 79.7 µM in assay [1]; 69.6 µM in assay [2]; greater than 100 µM in assay [3]; greater than 100 µM in [4]; greater than 60.2 µM in assay [5]; greater than 92.9 µM in [6]. The TGI in [7] was 85.2 µM; in assay [8] it was greater than 100 µM; in assay [9], greater than 100 µM; in assay [10] it was greater than 100 µM.
For the molecule `c1ccc(OCCC[P+](c2ccccc2)(c2ccccc2)c2ccccc2)cc1`, the GI50 is 1.81 µM in [1]; 1.97 µM in assay [2]; 3.12 µM in [3]; 3.19 µM in assay [4]; 2.33 µM in assay [5]; 2.69 µM in [6]. The GI50 was 0.574 µM in assay [7], 2.79 µM in [8], 0.285 µM in assay [9] and 1.94 µM in assay [10]. The TGI in assay [1] worked out at 10.9 µM; in [2] it was 7.77 µM; in assay [3], 13.7 µM; in assay [4], 19.6 µM; in assay [5], 11.2 µM; in [6] it was 28.4 µM. In addition, the TGI in assay [7] amounted to 4.24 µM; in assay [8], 13.5 µM; in [9] it was 0.832 µM; in [10], 7.97 µM.
In the case of `Cc1c(C#N)cccc1[C@@H](C)Nc1nnc(C)c2cnc(N3CCOCC3)cc12`, the GI50 in assay [1] is 15.3 µM; in assay [2] it was 21.9 µM; in assay [3], 28.3 µM; in assay [4] it was 27.7 µM; in assay [5], 26.9 µM; in assay [6] it was 12.2 µM. Besides, the GI50 in [7] was 17.5 µM; in assay [8], 27.7 µM; in assay [9] it was 22.8 µM; in [10], 2.72 µM. Moreover, the TGI in [1] was greater than 100 µM; in assay [2] it was greater than 100 µM; in assay [3], 90.6 µM; in assay [4], greater than 100 µM; in assay [5], greater than 100 µM; in [6], 66.6 µM. The TGI in assay [7] was greater than 100 µM; in [8], greater than 100 µM; in [9], 63.7 µM; in assay [10], greater than 100 µM.
For the molecule `O=C(NNc1ccc(Cl)cc1)C1CCC(CNS(=O)(=O)c2ccccc2Cl)CC1` (stereo not given), the GI50 in assay [1] was 15 µM; in assay [2], 4.58 µM; in [3], 74.4 µM; in assay [4], 31.6 µM; in assay [5] it was 4.63 µM; in assay [6] it was 65.2 µM. Besides, the GI50 in [7] was 12.8 µM; in [8], 14.3 µM; in [9], 4.25 µM; in assay [10], 31.3 µM. Moreover, the TGI is 50.6 µM in assay [1]; 68.5 µM in assay [2]; greater than 100 µM in assay [3]; greater than 100 µM in [4]; 29 µM in assay [5]; greater than 100 µM in assay [6]. The TGI in assay [7] is 75.1 µM; in assay [8], greater than 100 µM; in [9], greater than 100 µM; in [10] it was 74.9 µM.
On to `COc1ccc(-c2cncn2-c2cc(OC)c(OC)c(OC)c2)cc1`, for which the GI50 was 0.659 µM in assay [1]; 0.0311 µM in [2]; 1.87 µM in assay [3]; 0.151 µM in [4]; 0.465 µM in assay [5]; 0.123 µM in [6]. Further, the GI50 is 0.019 µM in assay [7], 0.367 µM in assay [8], 1.72 µM in assay [9] and 0.103 µM in assay [10]. For the same molecule, the TGI was greater than 43.7 µM in assay [1]; greater than 14.8 µM in [2]; greater than 77 µM in assay [3]; 9.92 µM in assay [4]; 25.7 µM in assay [5]; greater than 6.68 µM in assay [6]. Further, the TGI is 0.283 µM in [7], greater than 84.6 µM in assay [8], 3.59 µM in assay [9] and 17.5 µM in assay [10].
For the molecule `COc1ccc(-c2cc3c(C)nc(N)nc3n(C3CCC(OCCO)CC3)c2=O)cn1` (stereo not given), the GI50 was 0.156 µM and 0.0977 µM in [1]; 0.0501 µM and 0.0401 µM in [2]; 0.0677 µM and 0.0626 µM in assay [3]; 0.153 µM and 0.106 µM in assay [4]; 0.0967 µM and 0.144 µM in [5]; 0.0345 µM and 0.015 µM in assay [6]. The GI50 was 0.052 µM and 0.0337 µM in assay [7]; 0.0629 µM and 0.0475 µM in [8]; 0.0345 µM and 0.0941 µM in [9]; 0.0211 µM in assay [10]. Further, the TGI in assay [1] is greater than 6.91 µM; in [2] it was 0.326 µM and 0.275 µM; in [3], > 10 µM and 7.35 µM; in assay [4] it was > 10 µM and 8.28 µM; in assay [5], 0.792 µM and 1.13 µM; in assay [6], 0.272 µM and 0.113 µM. Moreover, the TGI was 0.8 µM and 0.386 µM in assay [7]; greater than 35.3 µM in assay [8]; > 10 µM and 6.38 µM in assay [9]; 0.0925 µM in assay [10].
